The record followed here is patent publication US20250263408A1 (Uniquest Pty Ltd, priority 2022, published 2025).

One experiment concerns the target T1, Ba/F3-Syk cells (Homo sapiens, UniProt P43405).
T1 construct: fused on or other part: Possible but unprinted fusion partner: TEL (ETV6), the usual partner for Ba/F3 lines transformed by Syk; Nothing on a partner is printed
The experiment in a line: Ba/F3 Proliferation Assay, Ba/F3-Syk cells (Resazurin). Type of experiment: cell-based. The note with it: 48-hour incubation.

The test system of experiment [1] is Ba/F3-WT (wild type) cells. Nature of the experiment: Ba/F3 Proliferation Assay, Ba/F3-WT (wild type) cells with mIL-3 (Resazurin). It counts as cell-based. The note with it: Mus musculus, BaF3, 48 h, Ba/F3-WT cells +mIL-3, 48-hour incubation. In general terms: Alamar Blue is a resazurin reagent that responds to reducing activity.

pEC50: −log10 of the molar value.

By pEC50 is commonly meant the negative decadic logarithm of the EC50, by convention in mol/L. `CC1(C)CNC[C@@H](COc2nc(-c3ccn(C4CC4(F)F)c3)cc3ncccc23)O1` (stereo partly drawn) [Compound 6.18, 7-[1-(2,2-difluorocyclopropyl)-1H-pyrrol-3-yl]-5-{[(2S)-6,6-dimethylmorpholin-2-yl]methoxy}-1,6-naphthyridine]: the pEC50 on Ba/F3-Syk cells was 7.44; in experiment [1], 5.48.

In the case of `CC1(C)CNC[C@@H](COc2nc(-c3cnn(CC4CC4)c3)cc3ncccc23)O1` [Compound 6.21, 7-[1-(cyclopropylmethyl)-1H-pyrazol-4-yl]-5-{[(2S)-6,6-dimethylmorpholin-2-yl]methoxy}-1,6-naphthyridine], the pEC50 was 7.90 at Ba/F3-Syk cells and 5.82 in experiment [1].

Take `CC(C)n1ccc(-c2cc3ncccc3c(OC[C@@H]3CNCCCO3)n2)c1` [Compound 6.24, 5-{[(2S)-1,4-oxazepan-2-yl]methoxy}-7-[1-(propan-2-yl)-1H-pyrrol-3-yl]-1,6-naphthyridine]: the pEC50 was 7.79 at Ba/F3-Syk cells and 5.55 in experiment [1].

Consider `FC(F)Cn1cc(-c2cc3ncccc3c(OC[C@@H]3CNCCCO3)n2)cn1` [Compound 6.27, 7-[1-(2,2-difluoroethyl)-1H-pyrazol-4-yl]-5-{[(2S)-1,4-oxazepan-2-yl]methoxy}-1,6-naphthyridine], for which the figures for the negative-log EC50 (pEC50) (on Ba/F3-Syk cells; in experiment [1]) were 7.28 and 5.25, respectively.

For the molecule `COCCn1ccc(-c2cc3ncccc3c(O[C@H](C)[C@@H]3CNCCO3)n2)c1` [Compound 6.29, 7-[1-(2-methoxyethyl)-1H-pyrrol-3-yl]-5-[(1R)-1-[(2S)-morpholin-2-yl]ethoxy]-1,6-naphthyridine], the pEC50 is 7.51 on Ba/F3-Syk cells and 5.84 in experiment [1].

With `CCn1ccc(-c2cc3ncccc3c(O[C@H](C)[C@@H]3CNCCO3)n2)c1` [Compound 6.31, 7-(1-ethyl-1H-pyrrol-3-yl)-5-[(1R)-1-[(2S)-morpholin-2-yl]ethoxy]-1,6-naphthyridine], the negative logarithm of the EC50 (pEC50) was 7.31 on Ba/F3-Syk cells and 5.48 in experiment [1].

As for `CC[C@@H](C)n1cc(-c2cc3ncccc3c(OC[C@@H]3CNCCO3)n2)cn1` [Compound 6.32, 7-{1-[(2R)-butan-2-yl]-1H-pyrazol-4-yl}-5-{[(2S)-morpholin-2-yl]methoxy}-1,6-naphthyridine], the pEC50 on Ba/F3-Syk cells is 7.04; in experiment [1], 5.69.

In the case of `CC[C@@H](C)n1cc(-c2cc3ncccc3c(OC[C@@H]3CNCC(C)(C)O3)n2)cn1` [Compound 6.33, 7-{1-[(2R)-butan-2-yl]-1H-pyrazol-4-yl}-5-{[(2S)-6,6-dimethylmorpholin-2-yl]methoxy}-1,6-naphthyridine], the pEC50 on Ba/F3-Syk cells is 7.31; in experiment [1] it was 5.43.

In the case of `CC[C@H](C)n1cc(-c2cc3ncccc3c(OC[C@@H]3CNCCO3)n2)cn1` [Compound 6.34, 7-{1-[(2S)-butan-2-yl]-1H-pyrazol-4-yl}-5-{[(2S)-morpholin-2-yl]methoxy}-1,6-naphthyridine], the pEC50 at Ba/F3-Syk cells was 7.04; in experiment [1], 5.68.

On to `CC[C@H](C)n1cc(-c2cc3ncccc3c(OC[C@@H]3CNCC(C)(C)O3)n2)cn1` [Compound 6.35, 7-{1-[(2S)-butan-2-yl]-1H-pyrazol-4-yl}-5-{[(2S)-6,6-dimethylmorpholin-2-yl]methoxy}-1,6-naphthyridine], for which the pEC50 is 7.63 on Ba/F3-Syk cells and 5.64 in experiment [1].

Regarding `CC1(Cn2cc(-c3cc4ncccc4c(OC[C@@H]4CNCCO4)n3)cn2)COC1` [Compound 6.36], the pEC50 at Ba/F3-Syk cells is 7.09; in experiment [1], 5.86.

With `FC1(F)CC(Cn2cc(-c3cc4ncccc4c(OC[C@@H]4CNCCO4)n3)cn2)C1` [Compound 6.37], the negative-log EC50 (pEC50) at Ba/F3-Syk cells was 7.22; in experiment [1], 6.25.

`CC1(C)CNC[C@@H](COc2nc(-c3cnn(CC4CC(F)(F)C4)c3)cc3ncccc23)O1` [Compound 6.38, 7-{1-[(3,3-difluorocyclobutyl)methyl]-1H-pyrazol-4-yl}-5-{[(2S)-6,6-dimethylmorpholin-2-yl]methoxy}-1,6-naphthyridine]: the results for the pEC50 (at Ba/F3-Syk cells; in experiment [1]) were 7.59 and 6.01, respectively.

Turning to `CC(F)(F)Cn1cc(-c2cc3ncccc3c(OC[C@@H]3CNCC(C)(C)O3)n2)cn1` [Compound 6.39, 7-[1-(2,2-difluoropropyl)-1H-pyrazol-4-yl]-5-{[(2S)-6,6-dimethylmorpholin-2-yl]methoxy}-1,6-naphthyridine], the pEC50 is 7.67 on Ba/F3-Syk cells and 5.82 in experiment [1].

Take `CC(F)(F)Cn1cc(-c2cc3ncccc3c(OC[C@@H]3CNCCO3)n2)cn1` [Compound 6.40, 7-[1-(2,2-difluoropropyl)-1H-pyrazol-4-yl]-5-{[(2S)-morpholin-2-yl]methoxy}-1,6-naphthyridine]: the pEC50 is 7.22 on Ba/F3-Syk cells and 5.84 in experiment [1].

`FC1(F)CC(Cn2ccc(-c3cc4ncccc4c(OC[C@@H]4CNCCO4)n3)c2)C1` [Compound 6.42, 7-{1-[(3,3-difluorocyclobutyl)methyl]-1H-pyrrol-3-yl}-5-{[(2S)-morpholin-2-yl]methoxy}-1,6-naphthyridine]: the pEC50 at Ba/F3-Syk cells was 7.82; in experiment [1], 6.08.

Turning to `CC(F)(F)Cn1ccc(-c2cc3ncccc3c(OC[C@@H]3CNCCO3)n2)c1` [Compound 6.43, 7-[1-(2,2-difluoropropyl)-1H-pyrrol-3-yl]-5-{[(2S)-morpholin-2-yl]methoxy}-1,6-naphthyridine], the pEC50 is 7.83 on Ba/F3-Syk cells and less than 6.00 in experiment [1].

Turning to `c1cnc2cc(-c3cnn([C@H]4CCOC4)c3)nc(OC[C@@H]3CNCCO3)c2c1` [Compound 6.44, 5-{[(2S)-morpholin-2-yl]methoxy}-7-{1-[(3S)-oxolan-3-yl]-1H-pyrazol-4-yl}-1,6-naphthyridine], the pEC50 is 7.48 at Ba/F3-Syk cells and less than 6.00 in experiment [1].

In the case of `c1cnc2cc(-c3cnn([C@@H]4CCOC4)c3)nc(OC[C@@H]3CNCCO3)c2c1` [Compound 6.45, 5-{[(2S)-morpholin-2-yl]methoxy}-7-{1-[(3R)-oxolan-3-yl]-1H-pyrazol-4-yl}-1,6-naphthyridine], the values for the pEC50 (on Ba/F3-Syk cells; in experiment [1]) were 7.16 and less than 6.00, respectively.

With `CC(C)n1ccc(-c2cc(OC[C@@H]3CNCCO3)c3cccnc3c2)c1` [Compound 7.1, 5-{[(2S)-morpholin-2-yl]methoxy}-7-[1-(propan-2-yl)-1H-pyrrol-3-yl]quinoline], the figures for the pEC50 (on Ba/F3-Syk cells; in experiment [1]) were 7.32 and 5.56, respectively.

Regarding `c1cnc2cc(-c3ccn(C4CCC4)c3)cc(OC[C@@H]3CNCCO3)c2c1` [Compound 7.3, 7-(1-cyclobutyl-1H-pyrrol-3-yl)-5-{[(2S)-morpholin-2-yl]methoxy}quinoline], the pEC50 at Ba/F3-Syk cells is 7.13; in experiment [1], 5.54.

On to `CC(C)n1ccc(-c2cc(OC[C@@H]3CNCC(C)(C)O3)c3cccnc3c2)c1` [Compound 7.4, 5-{[(2S)-6,6-dimethylmorpholin-2-yl]methoxy}-7-[1-(propan-2-yl)-1H-pyrrol-3-yl]quinoline], for which the pEC50 is 7.53 at Ba/F3-Syk cells and 5.57 in experiment [1].

`CC1(C)CNC[C@@H](COc2cc(-c3ccn(C4CCC4)c3)cc3ncccc23)O1` [Compound 7.5, 7-(1-cyclobutyl-1H-pyrrol-3-yl)-5-{[(2S)-6,6-dimethylmorpholin-2-yl]methoxy}quinoline]: the pEC50 is 7.44 at Ba/F3-Syk cells and 5.68 in experiment [1].
